Measured values taken from PubChem BioAssay (NCI).
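Briefly, cells in 96-well plates were exposed to five compound concentrations for 48 h, and endpoints were estimated by linear interpolation. The concentration for 50% growth inhibition is given as GI50. Definition used: TGI = concentration required for complete inhibition of growth.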

Tests used:
Test in all cases: NCI tumour cell line growth inhibition, 48 h
A549 NSCLC = test system: A549 NSCLC
DU-145 prostate = test system: DU-145 prostate
EKVX NSCLC = test system: EKVX NSCLC
HCC-2998 colon = test system: HCC-2998 colon
HL-60(TB) leukemia = test system: HL-60(TB) leukemia
MDA-MB-231 breast = test system: MDA-MB-231 breast
PC-3 prostate = test system: PC-3 prostate
SF-268 CNS = test system: SF-268 CNS
SK-MEL-28 melanoma = test system: SK-MEL-28 melanoma
UACC-257 melanoma = test system: UACC-257 melanoma

Structure (SMILES) | GI50 (A549 NSCLC) [µM] | TGI (A549 NSCLC) [µM] | GI50 (DU-145 prostate) [µM] | TGI (DU-145 prostate) [µM] | GI50 (EKVX NSCLC) [µM] | TGI (EKVX NSCLC) [µM] | GI50 (HCC-2998 colon) [µM] | TGI (HCC-2998 colon) [µM] | GI50 (HL-60(TB) leukemia) [µM] | TGI (HL-60(TB) leukemia) [µM] | GI50 (MDA-MB-231 breast) [µM] | TGI (MDA-MB-231 breast) [µM] | GI50 (PC-3 prostate) [µM] | TGI (PC-3 prostate) [µM] | GI50 (SF-268 CNS) [µM] | TGI (SF-268 CNS) [µM] | GI50 (SK-MEL-28 melanoma) [µM] | TGI (SK-MEL-28 melanoma) [µM] | GI50 (UACC-257 melanoma) [µM] | TGI (UACC-257 melanoma) [µM]
O=C(/C=C/c1ccc(C(F)(F)F)cc1)Nc1ccc(C=C2c3ccccc3C(=O)c3ccccc32)cc1 | 6.14 | > 100 | 30.5 | > 100 | 3.37 | > 100 | 8.71 | > 100 | 1.78 | 8.75 | 16 | > 100 | 1.84 | > 100 | 14.3 | > 100 | 7.38 | > 100 | 3.87 | > 100
O=c1c2cc(-c3ccccc3)sc2ncn1Cc1ccc(Cl)c(Cl)c1 | 18 | > 100 | 32.9 | > 100 | 16.3 | > 100 |  |  | 14.9 | 34.1 | 3.92 | 25 | 19.1 | 55.1 | 26 | 80.3 | 45.5 | > 100 | 62.2 | > 100
CCn1c(-c2cc3c([nH]c4ccccc43)c(-c3cccc(O)c3)n2)n[nH]c1=S | 4 | 18.8 | 4.87 | 16.7 | 3.45 | 14.5 | 4.77 | 17.5 |  |  | 2.79 | 15.6 | 2.77 | 13.3 | 4.04 | 17.4 | 2.63 | 12.3 | 4.11 | 16.4
CCc1ccccc1NC(=O)/C=C/c1ccccc1 |  | > 100 |  | > 100 |  | > 100 |  | > 100 |  |  |  | > 100 |  | > 100 |  | > 100 |  | > 100 |  | > 100
NS(=O)(=O)c1ccc(N2N=C3c4ccccc4CC3C2c2cccs2)cc1 (centres undefined) | 13.1 | 32.1 | 14.5 | 37.7 | 15.9 | 52.5 | 14.8 | 39.6 |  |  | 16.8 | 40.8 | 22.1 | 59.5 | > 100 | > 100 | 75.6 | > 100 | 29.7 | 73.7
Oc1c(Cl)cc(Cl)c2ccc(Cn3cc(-c4cc(C(F)(F)F)cc(C(F)(F)F)c4)nn3)nc12 | 15.8 | 31.6 | 1.57 | 3.06 | 7.65 | 21 | 7.72 | 21.4 |  |  | 2 | 4.95 | 2.81 | 10.3 | 4.22 | 17.5 | 1.7 | 3.48 | 1.22 | 2.99
O=C(Nc1ccc(F)cc1F)c1cc(Cl)ccc1O | 1.29 | 41 | 3 | 69.6 | 1.94 | 8.38 | 2.97 | 9.51 |  |  | 1.74 | 7.48 | 1.88 | 41.2 | 1.3 | 11.6 | 0.754 | 8.69 | 0.397 | 2.68
